Source: patent US6982348B2, “Aminoethanol derivatives” (Takeda Pharmaceutical Company Limited, priority 2001, dated 2006)

| SMILES | melting point [°C] |
| --- | --- |
| O=C(N[C@H](Cc1ccc(C(F)(F)F)cc1)[C@@H](O)c1ccc(F)cc1)c1ccc(F)c2c1CCCC2 (racemic) [Example 31, 4-fluoro-N-[(1RS,2SR)-2-(4-fluorophenyl)-2-hydroxy-1-[4-(trifluoromethyl)benzyl]ethyl]-5,6,7,8-tetrahydronaphthalene-1-carboxamide] | 241 to 242 |
| O=C(N[C@H](Cc1ccc(C(F)(F)F)cc1)[C@@H](O)c1ccc(F)cc1)c1cccc2c1CCCC2 (racemic) [Example 33, N-[(1RS,2SR)-2-(4-fluorophenyl)-2-hydroxy-1-[4-(trifluoromethyl)benzyl]ethyl]-5,6,7,8-tetrahydronaphthalene-1-carboxamide] | 219 to 221 |
| O=C(N[C@H](Cc1ccc(C(F)(F)F)cc1)[C@@H](O)c1ccc(F)cc1)c1ccc([N+](=O)[O-])c2c1CCCC2 (racemic) [Example 38, N-[(1RS,2SR)-2-(4-fluorophenyl)-2-hydroxy-1-[4-(trifluoromethyl)benzyl]ethyl]-4-nitro-5,6,7,8-tetrahydronaphthalene-1-carboxamide] | 207 to 209 |
| O=C(N[C@H](Cc1ccc(C(F)(F)F)cc1)[C@@H](O)c1ccc(F)cc1)C1CCCc2ccccc21 (mixture of isomers) [Example 41, N-[(1RS,2SR)-2-(4-fluorophenyl)-2-hydroxy-1-[4-(trifluoromethyl)benzyl]ethyl]-1,2,3,4-tetrahydronaphthalene-1-carboxamide] | 205 to 214 |
| O=C(N[C@H](Cc1ccc(C(F)(F)F)cc1)[C@@H](O)c1ccc(F)cc1)c1cccc2c1CCCCC2 (racemic) [Example 42, N-[(1RS,2SR)-2-(4-fluorophenyl)-2-hydroxy-1-[4-(trifluoromethyl)benzyl]ethyl]-6,7,8,9-tetrahydro-5H-benzo[a]cycloheptene-1-carboxamide] | 210 to 211 |
| O=C(CC1CCCC1)N[C@H](Cc1ccc(C(F)(F)F)cc1)[C@@H](O)c1ccc(F)cc1 (racemic) [Example 44, 2-cyclopentyl-N-[(1RS,2SR)-2-(4-fluorophenyl)-2-hydroxy-1-[4-(trifluoromethyl)benzyl]ethyl]acetamide] | 195 to 196 |
| O=C(CCC1CCCC1)N[C@H](Cc1ccc(C(F)(F)F)cc1)[C@@H](O)c1ccc(F)cc1 (racemic) [Example 45, 3-cyclopentyl-N-[(1RS,2SR)-2-(4-fluorophenyl)-2-hydroxy-1-[4-(trifluoromethyl)benzyl]ethyl]propionamide] | 169 to 170 |
| O=C(CCCc1ccccc1)N[C@H](Cc1ccc(C(F)(F)F)cc1)[C@@H](O)c1ccc(F)cc1 (racemic) [Example 47, N-((1RS,2SR)-2-(4-fluorophenyl)-2-hydroxy-1-((4-(trifluoromethyl)phenyl)methyl)ethyl)-4-phenylbutyramide] | 150 to 151 |
| O=C(CCc1ccccc1)N[C@H](Cc1ccc(C(F)(F)F)cc1)[C@@H](O)c1ccc(F)cc1 (racemic) [Example 48, N-((1RS,2SR)-2-(4-fluorophenyl)-2-hydroxy-1-((4-(trifluoromethyl)phenyl)methyl)ethyl)-3-phenylpropanamide] | 144 to 145 |
| CC(=CC(=O)N[C@H](Cc1ccc(C(F)(F)F)cc1)[C@@H](O)c1ccc(F)cc1)C(F)(F)F (racemic) [Example 49, 4,4,4-trifluoro-N-[(1RS,2SR)-2-(4-fluorophenyl)-2-hydroxy-1-[4-(trifluoromethyl)benzyl]ethyl]-3-methyl-2-butenamide] | 182 to 183 |
| O=C(N[C@H](Cc1ccc(C(F)(F)F)cc1)[C@@H](O)c1ccc(F)cc1)C1CCCCC1 (racemic) [Example 52, N-((1RS,2SR)-2-(4-fluorophenyl)-2-hydroxy-1-((4-(trifluoromethyl)phenyl)methyl)ethyl)cyclohexanecarboxamide] | 203 to 204 |
| O=C1CC(C(=O)N[C@H](Cc2ccc(C(F)(F)F)cc2)[C@@H](O)c2ccc(F)cc2)c2ccccc21 (mixture of isomers) [Example 53, N-((1RS,2SR)-2-(4-fluorophenyl)-2-hydroxy-1-((4-(trifluoromethyl)phenyl)methyl)ethyl)-3-oxo-2,3-dihydro-1H-indene-1-carboxamide] | 237 to 238 |
| O=C(N[C@H](Cc1ccc(C(F)(F)F)cc1)[C@@H](O)c1ccc(F)cc1)c1ccc(F)cc1 (racemic) [Example 55, 4-fluoro-N-((1RS,2SR)-2-(4-fluorophenyl)-2-hydroxy-1-((4-(trifluoromethyl)phenyl)methyl)ethyl)benzamide] | 202 to 203 |
| COc1ccc(C(=O)N[C@H](Cc2ccc(C(F)(F)F)cc2)[C@@H](O)c2ccc(F)cc2)cc1 (racemic) [Example 60, N-((1RS,2SR)-2-(4-fluorophenyl)-2-hydroxy-1-((4-(trifluoromethyl)phenyl)methyl)ethyl)-4-(methyloxy)benzamide] | 192 to 193 |

Further lines, results first:

| melting point [°C] | SMILES |
| --- | --- |
| 222 to 224 | O=C(N[C@H](Cc1ccc(C(F)(F)F)cc1)[C@@H](O)c1ccc(F)cc1)c1cccc2c(F)cccc12 (racemic) [Example 32, 5-fluoro-N-[(1RS,2SR)-2-(4-fluorophenyl)-2-hydroxy-1-[4-(trifluoromethyl)benzyl]ethyl]naphthalene-1-carboxamide] |
| 222 to 223 | O=C(N[C@H](Cc1ccc(C(F)(F)F)cc1)[C@@H](O)c1ccc(F)cc1)c1ccc(Cl)c2ccccc12 (racemic) [Example 34, 4-chloro-N-[(1RS,2SR)-2-(4-fluorophenyl)-2-hydroxy-1-[4-(trifluoromethyl)benzyl]ethyl]naphthalene-1-carboxamide] |
| 214 to 216 | O=C(N[C@H](Cc1ccc(C(F)(F)F)cc1)[C@@H](O)c1ccc(F)cc1)c1cccc2ccccc12 (racemic) [Example 35, N-[(1RS,2SR)-2-(4-fluorophenyl)-2-hydroxy-1-[4-(trifluoromethyl)benzyl]ethyl]naphthalene-1-carboxamide] |
| 198 to 199 | Cc1ccc(C(=O)N[C@H](Cc2ccc(C(F)(F)F)cc2)[C@@H](O)c2ccc(F)cc2)c2ccccc12 (racemic) [Example 36, N-((1RS,2SR)-2-(4-fluorophenyl)-2-hydroxy-1-((4-(trifluoromethyl)phenyl)methyl)ethyl)-4-methyl-1-naphthalenecarboxamide] |
| 211 to 212 | O=C(N[C@H](Cc1ccc(C(F)(F)F)cc1)[C@@H](O)c1ccc(F)cc1)c1cccc2c(Cl)cccc12 (racemic) [Example 37, 5-chloro-N-[(1RS,2SR)-2-(4-fluorophenyl)-2-hydroxy-1-[4-(trifluoromethyl)benzyl]ethyl]naphthalene-1-carboxamide] |
| 223 to 224 | O=C(N[C@H](Cc1ccc(C(F)(F)F)cc1)[C@@H](O)c1ccc(F)cc1)c1cccc2cc(F)ccc12 (racemic) [Example 39, 6-fluoro-N-[(1RS,2SR)-2 (4-fluorophenyl)-2-hydroxy-1-[4-(trifluoromethyl)benzyl]ethyl]naphthalene-1-carboxamide] |
| 211 to 214 | O=C(N[C@H](Cc1ccc(C(F)(F)F)cc1)[C@@H](O)c1ccc(F)cc1)c1cccc2c([N+](=O)[O-])cccc12 (racemic) [Example 40, N-[(1RS,2SR)-2-(4-fluorophenyl)-2-hydroxy-1-[4-(trifluoromethyl)benzyl]ethyl]-5-nitronaphthalene-1-carboxamide] |
| 229 to 231 | O=C(N[C@H](Cc1ccc(C(F)(F)F)cc1)[C@@H](O)c1ccc(F)cc1)c1ccc(Br)c2ccccc12 (racemic) [Example 43, 4-bromo-N-[(1RS,2SR)-2-(4-fluorophenyl)-2-hydroxy-1-[4-(trifluoromethyl)benzyl]ethyl]naphthalene-1-carboxamide] |
| 188 to 189 | O=C(N[C@H](Cc1ccc(C(F)(F)F)cc1)[C@@H](O)c1ccc(F)cc1)c1csc2ccccc12 (racemic) [Example 46, N-[(1RS,2SR)-2-(4-fluorophenyl)-2-hydroxy-1-[4-(trifluoromethyl)benzyl]ethyl]-1-benzothiophene-3-carboxamide] |
| 187 to 188 | O=C(N[C@H](Cc1ccc(C(F)(F)F)cc1)[C@@H](O)c1ccc(F)cc1)c1cccc(Cl)c1Cl (racemic) [Example 50, 2,3-dichloro-N-((1RS,2SR)-2-(4-fluorophenyl)-2-hydroxy-1-((4-(trifluoromethyl)phenyl)methyl)ethyl)benzamide] |
| 206 to 207 | O=C(N[C@H](Cc1ccc(C(F)(F)F)cc1)[C@@H](O)c1ccc(F)cc1)c1cccc2cc([N+](=O)[O-])ccc12 (racemic) [Example 51, N-[(1RS,2SR)-2-(4-fluorophenyl)-2-hydroxy-1-[4-(trifluoromethyl)benzyl]ethyl]-6-nitronaphthalene-1-carboxamide] |
| 199 to 201 | N#Cc1ccc(C(=O)N[C@H](Cc2ccc(C(F)(F)F)cc2)[C@@H](O)c2ccc(F)cc2)c2ccccc12 (racemic) [Example 54, 4-cyano-N-[(1RS,2SR)-2-(4-fluorophenyl)-2-hydroxy-1-[4-(trifluoromethyl)benzyl]ethyl]naphthalene-1-carboxamide] |
| 193 to 194 | COc1ccc2c(C(=O)N[C@H](Cc3ccc(C(F)(F)F)cc3)[C@@H](O)c3ccc(F)cc3)cccc2c1 (racemic) [Example 56, N-((1RS,2SR)-2-(4-fluorophenyl)-2-hydroxy-1-((4-(trifluoromethyl)phenyl)methyl)ethyl)-6-(methyloxy)-1-naphthalenecarboxamide] |
| 227 to 228 | O=C(N[C@H](Cc1ccc(C(F)(F)F)cc1)[C@@H](O)c1ccc(F)cc1)c1ccnc2ccccc12 (racemic) [Example 57, N-((1RS,2SR)-2-(4-fluorophenyl)-2-hydroxy-1-((4-(trifluoromethyl)phenyl)methyl)ethyl)-4-quinolinecarboxamide] |
| 231 to 232 | O=C(N[C@H](Cc1ccc(C(F)(F)F)cc1)[C@@H](O)c1ccc(F)cc1)c1cccc2c1-c1ccccc1C2=O (racemic) [Example 61, N-((1RS,2SR)-2-(4-fluorophenyl)-2-hydroxy-1-((4-(trifluoromethyl)phenyl)methyl)ethyl)-9-oxo-9H-fluorene-4-carboxamide] |
